# Measurements published in PMC3753236, “Glucocorticosteroids in Nano-Sterically Stabilized Liposomes Are Efficacious for Elimination of the Acute Symptoms of Experimental Cerebral Malaria” (PLoS ONE, 2013).
# How the values were obtained:
# [1] = other disease models; ref [5]; cited from earlier work
# [2] = system: Plasmodium berghei ANKA (PbAus); experiment: Early treatment of ECM, PbAus-inoculated C57Bl/6 mice (with sequential artemisone); settings: for Death: ECM (number of mice) / Death: Severe anemic malaria (number of mice) / Death: Toxicity (number of mice) / Death: ECM (%) / Death: Severe anemic malaria (%) / Average clinical score (±SEM): days 3, 5, 7, 9 p.i.; for Death: ECM (%) / Death: Severe anemic malaria (%): excludes acute toxicity deaths; for Average clinical score (±SEM): 11 days post-inoculation; for % survival / Group score: 20 mg/kg (Fig 6 legend)
# Protocol: (§1) Plasmodium berghei ANKA (PbA; PbA MRA-311, CDC, Atlanta, GA, USA) was maintained in vivo by serial transfer of parasitized erythrocytes (PE) from infected to naïve mice. Experiments were also performed using a second strain of PbA, similarly maintained, and designated PbAus in the text (courtesy of Prof. G. Grau, University of Sydney, Australia).
# (§2) Parasitemia was monitored by thin blood smears prepared from tail blood. These were stained with a 25% Giemsa solution, examined under a light microscope, and parasitemia determined as the percent of infected red blood cells per 10,000 erythrocytes. Disease severity was determined according to scoring of neurological symptoms and changes in weight and temperature, as previously described […] Parasitemias above 20% and the absence of neurological symptoms indicated severe anemic malaria.
# (§3) For early ECM treatment, injections were given on days 3, 5, 7, and 9 p.i; for late treatment, treatment was given every other day, starting on day 5 p.i. for a total of at least two injections. Infected, non-treated control mice were injected with 5% dextrose or empty nSSL. Clinical signs and parasitemias were monitored and disease severity scored as described […] At each time-point, at least 3 mice from each group were chosen at random, deeply anesthetized, and brains were removed following intracardial perfusion (using saline, if organs were destined for real-time (rt)PCR analysis, or saline/formalin, if organs were destined for histopathological analysis). Organs destined for rtPCR analysis were snap-frozen in liquid nitrogen and stored at −80°C until use. Organs destined for immunohistology were immediately immersed in cryoprotectant solution (see below).
# [3] = system: PbAus-infected C57Bl/6 mice; experiment: Brain edema, Evans blue dye extravasation; format: in vivo; settings: treatment days 3, 5, 7, 9 p.i.
# Protocol: BBB disruption was assessed by quantifying Evans blue dye extravasation. 200 µl 2% (w/v) Evan's blue solution in PBS was injected i.v. to pre-warmed mice. After 2 h mice were anesthetized and perfused intracardially with ice-cold PBS. Brains were extracted, homogenized in 1 ml PBS, and centrifuged; the supernatant was read by spectrophotometry at 510 nm. Values were normalized to the values from the brains of non-infected mice similarly injected.
# [4] = system: Plasmodium berghei ANKA (PbA); experiment: Early treatment of experimental cerebral malaria (ECM), ICR mice infected with PbA; settings: 10 mg/kg/d on days 3, 5, 7, 9 p.i.
# Protocol: as §1, §2
# as §3, with “described […] Surviving mice were treated with 2×10 mg/kg/d artemisone by intraperitoneal injection in order to achieve cure; mice were monitored for four weeks post-artemisone treatment in order to allow detection of possible late recrudescence.” for “described”
# [5] = system: inflammation-related genes (CCL5, CXCL9, CXCL10, ICAM-1, IFNγ, IL-4); experiment: Brain expression of inflammation-related genes by qPCR; format: in vivo, C57Bl/6 mice; settings: day 9 p.i., treatment days 3, 5, 7, 9 p.i., relative to non-infected mice, normalized to HPRT
# Protocol: For total RNA extraction, samples were homogenized in Tri-reagent (Sigma) and the homogenate separated into aqueous and organic phases by chloroform addition and centrifugation. RNA was precipitated from the aqueous phase by addition of isopropanol, washed with ethanol, and solubilized in UPW.
# cDNA synthesis was performed using a High Capacity cDNA Reverse Transcription kit (Applied Biosystems, Warrington, UK). cDNA was amplified from 1 µg RNA from each sample with the addition of 2 µl Multiscribe™ reverse transcriptase (RT), 2 µl RNAse inhibitor, 4 µl random primers, 4 µl RT buffer, and 1.6 µl dNTP's according to the manufacturer's instructions for first-strand cDNA synthesis. UPW was added for a final sample volume of 20 µl. cDNA samples were stored at −20°C.
# Real-time transcription-polymerase chain reaction (rtPCR) was carried out using Applied Biosystems' 9800 Fast Thermal Cycler. The reaction mix for rtPCR analysis consisted of 1 µl cDNA, 300 nM forward (f) and reverse (r) primers (Syntezza, Jerusalem, Israel), and 7.5 µl manufactured master mix buffer containing nucleotides, Taq polymerase, and SYBR Green (Applied Biosystems) in a total volume of 15 µl. Gene amplification included one stage of 10 min at 95°C followed by 40 cycles of a two-step loop: 20 s at 95°C, and 1 min at 60°C. The fold-change in gene expression was normalized to the endogenous gene hypoxanthine phosphoribosyltransferase (HPRT). […] Results were considered significant if the observed fold-change was at least ×2 relative to non-infected mice. Primer sequences (5′-3′) were as follows: CCL5: […] (f), […] (r); ICAM-1: […] (f); […] (r); IFN-γ: […] (f), […] (r); IL-4: […] (f), […] (r); CXCL9: […] (f), […] (r); CXCL10: […] (f), […] (f), […] (r).
# [6] = day 5 p.i., treatment days 3, 5, 7, 9 p.i.
# [7] = day 9 p.i., treatment days 3, 5, 7, 9 p.i.
structure (smiles),measurement,setting,value
"C[C@H]1C[C@H]2[C@@H]3CCC4=CC(=O)C=C[C@]4(C)[C@@]3(F)[C@@H](O)C[C@]2(C)[C@@]1(O)C(=O)COC(=O)CCC(=O)O [BMS, β-methasone hemisuccinate]",Potency of BMS relative to MPS,[1],five
same,Death: ECM (number of mice),[2]; 5 mg/kg i.v.,5
same,Death: Severe anemic malaria (number of mice),[2]; 5 mg/kg i.v.,1
same,Death: Toxicity (number of mice),[2]; 5 mg/kg i.v.,3
same,Death: ECM (%),[2]; 5 mg/kg i.v.,(83%)
same,Death: Severe anemic malaria (%),[2]; 5 mg/kg i.v.,(16%)
same,Death: ECM (number of mice),[2]; 10 mg/kg i.v.,9
same,Death: Severe anemic malaria (number of mice),[2]; 10 mg/kg i.v.,1
same,Death: Toxicity (number of mice),[2]; 10 mg/kg i.v.,3
same,Death: ECM (%),[2]; 10 mg/kg i.v.,(90%)
same,Death: Severe anemic malaria (%),[2]; 10 mg/kg i.v.,(10%)
same,Average clinical score (±SEM),[2]; 10 mg/kg,7.5±1.6
same,Death: ECM (number of mice),[2]; 20 mg/kg i.v.,9
same,Death: Severe anemic malaria (number of mice),[2]; 20 mg/kg i.v.,3
same,Death: Toxicity (number of mice),[2]; 20 mg/kg i.v.,5
same,Death: ECM (%),[2]; 20 mg/kg i.v.,(75%)
same,Death: Severe anemic malaria (%),[2]; 20 mg/kg i.v.,(25%)
same,"Survival rate on day 13 p.i., at the end of the cerebral phase","[2]; 20 mg/kg on days 3, 5, 7, 9 p.i., listed as free BMS",12%
same,Average clinical score (±SEM),[2]; 20 mg/kg,12.3±2.4
same,% survival,[2]; [6],100%
same,Group score,[2]; [6],1.3±1.1
same,% survival,[2]; [7],47%
same,Group score,[2]; [7],8.4 ±1.7
same,Incidence of ECM,"[2]; treatment days 3, 5, 7, 9 p.i., as quoted with the gene expression study",75%
same,"Edema, ng Evan's blue/brain",[3]; day 5 p.i.,263±95 ng Evan's blue/brain
same,"Edema, ng Evan's blue/brain",[3]; day 9 p.i.,263±6 ng Evan's blue/brain
same,ECM rate (incidence of CM),[4],67%
same,CCL5 relative expression ± SEM,[5],45.7±7.6
same,CXCL9 relative expression ± SEM,[5],39.3±11.1
same,CXCL10 relative expression ± SEM,[5],18.2±2.4
same,ICAM-1 relative expression ± SEM,[5],3.3±0.7
same,IFNγ relative expression ± SEM,[5],105.1±37.7
same,IL-4 relative expression ± SEM,[5],1.5±0.3
